Experiments:
CHO = experiment: Inhibition of senktide-evoked increases in intracellular calcium levels in CHO cells measured using the fluorescent indicator Fura 2; assay type: functional, Cricetulus griseus
Substance-P receptor = Substance-P receptor (Homo sapiens, UniProt P25103); experiment: Compound was tested for binding affinity against human NK1 receptor
Neuromedin-K receptor = target: T1, Neuromedin-K receptor (Homo sapiens, UniProt P29371); experiment: Compound was tested for binding affinity against human Tachykinin receptor 3 in CHO cells; assay type: cell-based
T1 sequence (P29371 whole entry): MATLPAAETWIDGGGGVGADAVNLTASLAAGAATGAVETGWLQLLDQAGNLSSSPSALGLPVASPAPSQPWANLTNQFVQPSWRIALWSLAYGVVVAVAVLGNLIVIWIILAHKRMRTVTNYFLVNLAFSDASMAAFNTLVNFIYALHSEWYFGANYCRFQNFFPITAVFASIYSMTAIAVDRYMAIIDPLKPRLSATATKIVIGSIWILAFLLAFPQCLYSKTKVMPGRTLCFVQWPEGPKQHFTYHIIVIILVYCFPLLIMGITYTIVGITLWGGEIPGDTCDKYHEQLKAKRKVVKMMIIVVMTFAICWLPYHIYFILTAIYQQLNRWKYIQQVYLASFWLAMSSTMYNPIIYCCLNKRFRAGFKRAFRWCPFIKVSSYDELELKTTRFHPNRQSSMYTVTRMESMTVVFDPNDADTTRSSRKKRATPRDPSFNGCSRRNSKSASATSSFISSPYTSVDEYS

Substance-P receptor, sequence (P25103 whole entry): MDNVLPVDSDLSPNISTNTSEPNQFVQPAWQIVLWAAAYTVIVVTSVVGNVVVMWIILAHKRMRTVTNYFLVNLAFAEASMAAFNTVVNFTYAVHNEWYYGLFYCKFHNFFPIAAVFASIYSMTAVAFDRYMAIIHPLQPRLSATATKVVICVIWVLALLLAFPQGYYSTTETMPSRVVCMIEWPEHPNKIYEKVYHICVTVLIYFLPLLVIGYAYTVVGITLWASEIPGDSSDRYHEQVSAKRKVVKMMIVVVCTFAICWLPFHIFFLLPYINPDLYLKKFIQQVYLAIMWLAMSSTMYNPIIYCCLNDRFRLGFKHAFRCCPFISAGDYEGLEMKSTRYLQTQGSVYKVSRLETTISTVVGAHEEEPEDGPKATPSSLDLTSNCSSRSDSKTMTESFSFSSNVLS

Row | IC50 (Substance-P receptor) [nM] | IC50 (Neuromedin-K receptor) [nM] | Compound | Ke (CHO) [nM]
1 | – | – | CC(C)[C@H](OC(=O)N[C@](C)(Cc1ccccc1F)C(=O)NCCCCCCCNC(N)=O)c1ccccc1 | 2.2
2 | 1400 | 1200 | CC(NC(=O)[C@@](C)(Cc1cc2ccccc2[nH]1)NC(=O)OC(c1ccccc1)C(C)C)c1ccccc1 (stereo partly drawn) | –
